Where a SMILES comes first, the peptide text is derived from it. [ ]: non-standard residue; d: D form. The star is where a group is joined. Orn(α-tetramethylguanidino) = CN(C)C(=N[C@@H](CCCN)C(=O)*)N(C)C; Pro(trans-4-F) = O=C(O)[C@@H]1C[C@@H](F)CN1; Pro(cis-4-F) = O=C(O)[C@@H]1C[C@H](F)CN1
Legend:
[1] = system: in vitro expression of sfGFP in the presence of RF1; assay: In vitro transcription-translation (iTT) assay of sfGFP in the presence of RF1; assay type: biochemical; details: peptide 5 µmol/L, RF1, 37 °C, 2 h, fluorescence, normalized to absence of PrAMPs, n = 3
Protocol: The sfGFP expression analysis relied on the NEB PureExpress Delta RF123 Kit (New England Biolabs, Frankfurt, Germany). The DNA template encoding sfGFP with a UAG stop codon was amplified from the pY71sfGFP vector by PCR using the primers sfGFP fwd ([…]) and sfGFP rev ([…]). The release factor RF1 of the kit was diluted 50-fold (v/v) in 1× Pure System Buffer (PSB, 1 mol/L magnesium acetate, 0.5 mol/L K3PO4 (pH 7.3), 1 mol/L potassium glutamate, 1 mol/L NH4Cl, 0.5 mol/L CaCl2, 1 mol/L spermidine, 0.1 mol/L putrescine, 0.1 mol/L DTT). sfGFP expression was performed in a freshly prepared mixture of kit solution A (2 µL), kit solution B (1.5 µL), 50-fold diluted RF1 (0.5 µL), sfGFP template (0.1325 pmol, 35 ng) or water as control (0.25 µL), PSB (0.25 µL), and a PrAMP (50 or 0 µmol/L) dissolved in water (0.5 µL). The reaction mixture was transferred to a black 384-well plate (flat bottom, PS, 784900, Greiner Bio-One GmbH), covered with a lid, and incubated (37 °C, 2 h) in a microplate reader (Gemini EM, Molecular Devices, San Jose, CA, USA). Fluorescence was recorded every 10 min (λex = 485 nm, λem = 535 nm).

[2] = system: 50S subunit assembly / 70S ribosome in E. coli RN31; assay: Ribosome profile analysis (RPA), sucrose gradient of E. coli RN31 lysate; assay type: cell-based, Escherichia coli; details: 90 min; for RPA [pre-50S formation]: E. coli RN31, 33% TSB, peptide 8 µg/mL, 5–25% sucrose gradient, n = 2 (Api137 n = 7)
Protocol: E. coli RN31 was grown in 33% TSB (37 °C, 200 rpm) from a starting OD600 of 0.05 to an OD600 of 0.2, measured on a NanoPhotometer® (NP80; Implen; Westlake Village, CA, USA), and divided into subcultures that were inoculated with a peptide ([…]) before being cultured for 90 min (37 °C, 200 rpm). The following steps were performed on ice. Cells were harvested by centrifugation (4000× g, 4 °C, 25 min), washed with TICO buffer (20 mmol/L Hepes-KOH, pH 7.6, 6 mmol/L MgAc2, 30 mmol/L KAc), centrifuged (4000× g, 25 min, 4 °C), and stored at −80 °C. The cell pellet was suspended in TICO buffer (500 µL) and mixed with silica beads (zirconium glass pellets, 100 µm diameter; Carl Roth; Karlsruhe, Germany) to lyse the cells on a FastPrep-24^TM 5G (MP Biomedicals, Solon, OH, USA) using three disruption cycles (30 s, 6.0 m/s) interrupted by 1 min of incubation on ice after each cycle. Cell debris was removed by centrifugation (5000× g, 4 °C, 5 min), the supernatant was transferred to a new reaction tube, centrifuged (20,000× g, 4 °C, 20 min), the absorbance was recorded at 260 nm on a NanoPhotometer® NP80, and the sample was stored at −80 °C.
A 5% (w/v) sucrose solution (6.5 mL) in TICO buffer containing 2-mercaptoethanol (4 mmol/L) was poured into an open-top centrifuge tube (13.2 mL, 14 × 89 mm, Beckman Coulter) and bottomed with a 25% (w/v) sucrose solution (6.5 mL) in TICO buffer containing 2-mercaptoethanol (4 mmol/L) using a cannula. The tube was sealed with parafilm and placed horizontally at 4 °C for 3 h and vertically at 4 °C for 30 min. A portion of the upper layer (550 µL) was replaced by lysate (500 µL, A260 = 30) and centrifuged using a swing-out rotor (SW 41 Ti, 52,500× g, 4 °C, 19 h) without a brake. The contents were transferred from bottom-up to obtain equal volumes in all wells of a black 96-well plate with a flat bottom (96 Well PP black Greiner Bio-One GmbH, Frickenhausen, Germany) using the Äkta Purifier 10 system, and absorbance was recorded at a wavelength of 254 nm. Fluorescence was measured in the plate using the PARADIGM at excitation (λex) and emission (λem) wavelengths of 485 nm and 535 nm for eGFP and 585 nm and 635 nm, respectively, for mCherry and normalized to the 70S ribosome peak (set to 100%).

[3] = system: E. coli RN31; assay: Growth inhibition of E. coli RN31 during 90 min exponential growth phase; assay type: cell-based, Escherichia coli; details: E. coli RN31, 33% TSB, peptide 8 µg/mL, 90 min, OD600; two biological replicates (n = 2)
Protocol: The following steps were performed on ice. Cells were harvested by centrifugation (4000× g, 4 °C, 25 min), washed with TICO buffer (20 mmol/L Hepes-KOH, pH 7.6, 6 mmol/L MgAc2, 30 mmol/L KAc), centrifuged (4000× g, 25 min, 4 °C), and stored at −80 °C. The cell pellet was suspended in TICO buffer (500 µL) and mixed with silica beads (zirconium glass pellets, 100 µm diameter; Carl Roth; Karlsruhe, Germany) to lyse the cells on a FastPrep-24^TM 5G (MP Biomedicals, Solon, OH, USA) using three disruption cycles (30 s, 6.0 m/s) interrupted by 1 min of incubation on ice after each cycle. Cell debris was removed by centrifugation (5000× g, 4 °C, 5 min), the supernatant was transferred to a new reaction tube, centrifuged (20,000× g, 4 °C, 20 min), the absorbance was recorded at 260 nm on a NanoPhotometer® NP80, and the sample was stored at −80 °C. […]

| SMILES | RPA [pre-50S formation] [2] | Residual iTT (sfGFP expression relative to no PrAMP) [1] [%] | reduction of bacterial growth vs untreated control [3] [%] | also measured |
| --- | --- | --- | --- | --- |
| CC[C@H](C)[C@H](NC(=O)[C@H](Cc1ccc(O)cc1)NC(=O)[C@@H](NC(=O)[C@@H]1CCCN1C(=O)[C@H](CCCNC(=N)N)NC(=O)[C@H](CC(N)=O)NC(=O)[C@H](CC(N)=O)NC(=O)[C@H](CCCN)N=C(N(C)C)N(C)C)C(C)C)C(=O)N1CCC[C@H]1C(=O)N[C@@H](CCCNC(=N)N)C(=O)N1CCC[C@H]1C(=O)N[C@@H](CCCNC(=N)N)C(=O)N1CCC[C@H]1C(=O)N1C[C@@H](F)C[C@H]1C(=O)N[C@@H](Cc1c[nH]cn1)C(=O)N1CCC[C@H]1C(=O)N[C@@H](CCCNC(=N)N)C(=O)N[C@@H](CC(C)C)C(=O)O [Api847] ({Orn(α-tetramethylguanidino)}-NNRPVYIPRPRP[Pro(cis-4-F)]HPRL-OH) | reduced | – | – | Residual iTT (sfGFP expression relative to no PrAMP) ([1]; listed as 4S-Fpr14): 21%; Residual iTT (sfGFP expression relative to no PrAMP) ([1]; listed as Pro14 4S-Fpr (cis)): 21 ± 0.2%; ribosomal profile, pre-50S peak ([2]; E. coli RN31, adjusted peptide concentration 16 µg/mL): a pre-50S peak was observed |
| CC[C@H](C)[C@H](NC(=O)[C@H](Cc1ccc(O)cc1)NC(=O)[C@@H](NC(=O)[C@@H]1C[C@@H](F)CN1C(=O)[C@H](CCCNC(=N)N)NC(=O)[C@H](CC(N)=O)NC(=O)[C@H](CC(N)=O)NC(=O)[C@H](CCCN)N=C(N(C)C)N(C)C)C(C)C)C(=O)N1CCC[C@H]1C(=O)N[C@@H](CCCNC(=N)N)C(=O)N1CCC[C@H]1C(=O)N[C@@H](CCCNC(=N)N)C(=O)N1CCC[C@H]1C(=O)N1CCC[C@H]1C(=O)N[C@@H](Cc1c[nH]cn1)C(=O)N1CCC[C@H]1C(=O)N[C@@H](CCCNC(=N)N)C(=O)N[C@@H](CC(C)C)C(=O)O [Api840] ({Orn(α-tetramethylguanidino)}-NNR[Pro(trans-4-F)]VYIPRPRPPHPRL-OH) | yes | 35 ± 0.1 | – | – |
| CC[C@H](C)[C@H](NC(=O)[C@H](Cc1ccc(O)cc1)NC(=O)[C@@H](NC(=O)[C@@H]1CCCN1C(=O)[C@H](CCCNC(=N)N)NC(=O)[C@H](CC(N)=O)NC(=O)[C@H](CC(N)=O)NC(=O)[C@H](CCCN)N=C(N(C)C)N(C)C)C(C)C)C(=O)N1CCC[C@H]1C(=O)N[C@@H](CCCNC(=N)N)C(=O)N1CCC[C@H]1C(=O)N[C@@H](CCCNC(=N)N)C(=O)N1CCC[C@H]1C(=O)N1CCC[C@H]1C(=O)N[C@@H](Cc1c[nH]cn1)C(=O)N1C[C@@H](F)C[C@H]1C(=O)N[C@@H](CCCNC(=N)N)C(=O)N[C@@H](CC(C)C)C(=O)O [Api849] ({Orn(α-tetramethylguanidino)}-NNRPVYIPRPRPPH[Pro(cis-4-F)]RL-OH) | no | – | 16 | Residual iTT (sfGFP expression relative to no PrAMP) ([1]; listed as 4S-Fpr16): 63%; Residual iTT (sfGFP expression relative to no PrAMP) ([1]; listed as Pro16 4S-Fpr (cis)): 63 ± 8.9% |
| CC[C@H](C)[C@H](NC(=O)[C@H](Cc1ccc(O)cc1)NC(=O)[C@@H](NC(=O)[C@@H]1CCCN1C(=O)[C@H](CCCNC(=N)N)NC(=O)[C@H](CC(N)=O)NC(=O)[C@H](CC(N)=O)NC(=O)[C@H](CCCN)N=C(N(C)C)N(C)C)C(C)C)C(=O)N1CCC[C@H]1C(=O)N[C@@H](CCCNC(=N)N)C(=O)N1C[C@H](F)C[C@H]1C(=O)N[C@@H](CCCNC(=N)N)C(=O)N1CCC[C@H]1C(=O)N1CCC[C@H]1C(=O)N[C@@H](Cc1c[nH]cn1)C(=O)N1CCC[C@H]1C(=O)N[C@@H](CCCNC(=N)N)C(=O)N[C@@H](CC(C)C)C(=O)O [Api842] ({Orn(α-tetramethylguanidino)}-NNRPVYIPR[Pro(trans-4-F)]RPPHPRL-OH) | reduced | 31 ± 0.7 | 49 | – |
| CC[C@H](C)[C@H](NC(=O)[C@H](Cc1ccc(O)cc1)NC(=O)[C@@H](NC(=O)[C@@H]1C[C@H](F)CN1C(=O)[C@H](CCCNC(=N)N)NC(=O)[C@H](CC(N)=O)NC(=O)[C@H](CC(N)=O)NC(=O)[C@H](CCCN)N=C(N(C)C)N(C)C)C(C)C)C(=O)N1CCC[C@H]1C(=O)N[C@@H](CCCNC(=N)N)C(=O)N1CCC[C@H]1C(=O)N[C@@H](CCCNC(=N)N)C(=O)N1CCC[C@H]1C(=O)N1CCC[C@H]1C(=O)N[C@@H](Cc1c[nH]cn1)C(=O)N1CCC[C@H]1C(=O)N[C@@H](CCCNC(=N)N)C(=O)N[C@@H](CC(C)C)C(=O)O [Api839] ({Orn(α-tetramethylguanidino)}-NNR[Pro(cis-4-F)]VYIPRPRPPHPRL-OH) | yes | 23 ± 0.2 | – | – |
| CC[C@H](C)[C@H](NC(=O)[C@H](Cc1ccc(O)cc1)NC(=O)[C@@H](NC(=O)[C@@H]1CCCN1C(=O)[C@H](CCCNC(=N)N)NC(=O)[C@H](CC(N)=O)NC(=O)[C@H](CC(N)=O)NC(=O)[C@H](CCCN)N=C(N(C)C)N(C)C)C(C)C)C(=O)N1CCC[C@H]1C(=O)N[C@@H](CCCNC(=N)N)C(=O)N1CCC[C@H]1C(=O)N[C@@H](CCCNC(=N)N)C(=O)N1CCC[C@H]1C(=O)N1C[C@H](F)C[C@H]1C(=O)N[C@@H](Cc1c[nH]cn1)C(=O)N1CCC[C@H]1C(=O)N[C@@H](CCCNC(=N)N)C(=O)N[C@@H](CC(C)C)C(=O)O [Api848] ({Orn(α-tetramethylguanidino)}-NNRPVYIPRPRP[Pro(trans-4-F)]HPRL-OH) | no | – | – | Residual iTT (sfGFP expression relative to no PrAMP) ([1]; listed as 4R-Fpr14): 64%; Residual iTT (sfGFP expression relative to no PrAMP) ([1]; listed as Pro14 4R-Fpr (trans)): 64 ± 4.6% |

— PMC12189828, “Substitution of Proline Residues by 4-Fluoro-L-Proline Affects the Mechanism of the Proline-Rich Antimicrobial Peptide Api137” (Antibiotics, 2025)
